From patent US20230019236A1, “PROTEIN TYROSINE PHOSPHATASE INHIBITORS AND METHODS OF USE THEREOF” (Calico Life Sciences LLC, priority 2019, published 2023)

The compounds below were run against T1, His tagged PTPN2 (TC45) protein (Homo sapiens, UniProt P17706) (assay: Mobility Shift Assay used to determine potency of PTPN2 inhibitors). Conditions: Table 2; read-out: PTPN2 MSA IC50.
T1 construct: made in house
T1 sequence (P17706 with tags, fused parts or gaps isoform P17706-2): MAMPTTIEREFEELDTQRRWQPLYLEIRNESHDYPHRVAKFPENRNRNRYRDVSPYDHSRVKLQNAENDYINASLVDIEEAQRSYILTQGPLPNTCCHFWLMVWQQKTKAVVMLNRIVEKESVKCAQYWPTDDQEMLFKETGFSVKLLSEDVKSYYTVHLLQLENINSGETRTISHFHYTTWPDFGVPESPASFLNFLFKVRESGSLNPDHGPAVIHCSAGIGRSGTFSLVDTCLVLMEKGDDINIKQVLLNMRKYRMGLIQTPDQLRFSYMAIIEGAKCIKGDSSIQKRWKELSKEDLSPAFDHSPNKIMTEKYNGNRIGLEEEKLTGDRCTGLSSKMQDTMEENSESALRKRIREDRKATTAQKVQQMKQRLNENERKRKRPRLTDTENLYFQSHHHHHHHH
Type: biochemical
Experimental: Example 292: Mobility Shift Assay used to determine potency of PTPN2 inhibitors
Compound activity was determined using in house His tagged PTPN2 (TC45) protein (SEQ ID NO: 1) in an in vitro enzymatic reaction. The enzymatic assay used to determine activity was a mobility shift assay using a LabChip EZ Reader by Caliper Life Sciences. The enzymatic reaction was carried out in assay buffer (50 mM HEPES pH 7.5, 1 mM EGTA, 10 mM EDTA, 0.01% Tween® 20, and 2 mM DTT). The compounds were dispensed on a white 384 well ProxiPlate™ (PerkinElmer Catalog#6008289) plate using the Labcyte Echo at varying concentrations (12 point, 1:3 dilution). The enzyme (at 0.5 nM) was incubated with compound for 10 minutes at room temperature. Then the substrate (phosphorylated insulin receptor probe sequence: ((OG488)—{NH—CH2—CH2—O—CH2—CH2—O—CH2—CO)—T—R—D—I—(PY)—E—T—D—Y—Y—R—K—K—NH2) (SEQ ID NO: 2) was added at 2 μM to the plates and incubated for another 10 minutes at room temperature. Finally, a quench solution (water and 4-bromo-3-(2-oxo-2-propoxyethoxy)-5-(3-{[1-(phenylmethanesulfonyl)piperidin-4-yl]amino}phenyl)thiophene-2-carboxylic acid) was added to the plates, which were then run on the EZ Reader (excitation 488 nm, emission 530 nm) to measure % conversion (the amount of phosphorylated substrate which was de-phosphorylated by PTPN2). […] The % inhibition was then used to calculate the IC50 values.

| Structure (SMILES) | IC50 |
| --- | --- |
| O=C1CN(c2c(O)cc3ccc(OCCCC(F)(F)CO)cc3c2F)S(=O)(=O)N1 [Compound 375, 5-{7-[(4,4-difluoro-5-hydroxypentyl)oxy]-1-fluoro-3-hydroxynaphthalen-2-yl}-1λ^6,2,5-thiadiazolidine-1,1,3-trione] | < 1 nM |
| O=C1CN(c2c(O)cc3ccc(OCCC45CC(C4)C5)cc3c2F)S(=O)(=O)N1 [Compound 378, 5-{7-[2-(bicyclo[11.1.1]pentan-1-yl)ethoxy]-1-fluoro-3-hydroxynaphthalen-2-yl}-1λ^6,2,5-thiadiazolidine-1,1,3-trione] | < 1 nM |
| O=C1CN(c2c(O)cc3ccc(C4=CCN(CCC5CC5)C4)cc3c2F)S(=O)(=O)N1 [Compound 244, 5-{7-[1-(2-cyclopropylethyl)-2,5-dihydro-1H-pyrrol-3-yl]-1-fluoro-3-hydroxynaphthalen-2-yl}-1λ^6,2,5-thiadiazolidine-1,1,3-trione] | 10 to 100 nM |
| NCC12CC(CCOc3ccc4cc(O)c(N5CC(=O)NS5(=O)=O)c(F)c4c3)(C1)C2 [Compound 376, 5-(7-{2-[3-(aminomethyl)bicyclo[11.1.1]pentan-1-yl]ethoxy}-1-fluoro-3-hydroxynaphthalen-2-yl)-1λ^6,2,5-thiadiazolidine-1,1,3-trione] | 1 to 10 nM |
| C[C@](O)(CO)CCOc1cc2c(F)c(N3CC(=O)NS3(=O)=O)c(O)cc2cc1O [Compound 387, 5-{7-[(3R)-3,4-dihydroxy-3-methylbutoxy]-1-fluoro-3,6-dihydroxynaphthalen-2-yl}-1λ^6,2,5-thiadiazolidine-1,1,3-trione] | < 1 nM |
| O=C1CN(c2c(O)cc3ccc(OCCN4CCC(F)(F)C4)cc3c2F)S(=O)(=O)N1 [Compound 383, 5-{7-[2-(3,3-difluoropyrrolidin-1-yl)ethoxy]-1-fluoro-3-hydroxynaphthalen-2-yl}-1λ^6,2,5-thiadiazolidine-1,1,3-trione] | 1 to 10 nM |
| CC1(CCOc2cc3c(F)c(N4CC(=O)NS4(=O)=O)c(O)cc3cc2O)CC1 [Compound 386, 5-{1-fluoro-3,6-dihydroxy-7-[2-(1-methylcyclopropyl)ethoxy]naphthalen-2-yl}-1λ^6,2,5-thiadiazolidine-1,1,3-trione] | < 1 nM |
| NCC1(CCOc2ccc3cc(O)c(N4CC(=O)NS4(=O)=O)c(F)c3c2)CCC1 [Compound 379, 5-(7-{2-[1-(aminomethyl)cyclobutyl]ethoxy}-1-fluoro-3-hydroxynaphthalen-2-yl)-1λ^6,2,5-thiadiazolidine-1,1,3-trione] | 1 to 10 nM |
| O=C1CN(c2c(O)cc3ccc(OCCN4CCC[C@H]4C(F)(F)F)cc3c2F)S(=O)(=O)N1 [Compound 381, 5-(1-fluoro-3-hydroxy-7-{2-[(2S)-2-(trifluoromethyl)pyrrolidin-1-yl]ethoxy}naphthalen-2-yl)-1λ^6,2,5-thiadiazolidine-1,1,3-trione] | 1 to 10 nM |
| CN(CCC#N)CCOc1ccc2cc(O)c(N3CC(=O)NS3(=O)=O)c(F)c2c1 [Compound 389, 3-[(2-{[8-fluoro-6-hydroxy-7-(1,1,4-trioxo-1λ^6,2,5-thiadiazolidin-2-yl)naphthalen-2-yl]oxy}ethyl)(methyl)amino]propanenitrile] | 1 to 10 nM |
| CC1(O)CN(CCOc2ccc3cc(O)c(N4CC(=O)NS4(=O)=O)c(F)c3c2)C1 [Compound 380, 5-{1-fluoro-3-hydroxy-7-[2-(3-hydroxy-3-methylazetidin-1-yl)ethoxy]naphthalen-2-yl}-1λ^6,2,5-thiadiazolidine-1,1,3-trione] | 1 to 10 nM |
| O=C1CN(c2c(O)cc3ccc(OCC45CC(CCO)(C4)C5)cc3c2F)S(=O)(=O)N1 [Compound 377, 5-(1-fluoro-3-hydroxy-7-{[3-(2-hydroxyethyl)bicyclo[1.1.1]pentan-1-yl]methoxy}naphthalen-2-yl)-1λ^6,2,5-thiadiazolidine-1,1,3-trione] | 1 to 10 nM |
| O=C1CN(c2c(O)cc3ccc(OCCCC(F)F)cc3c2F)S(=O)(=O)N1 [Compound 372, 5-[7-(4,4-difluorobutoxy)-1-fluoro-3-hydroxynaphthalen-2-yl]-1λ^6,2,5-thiadiazolidine-1,1,3-trione] | < 1 nM |
| O=C1CN(c2c(O)cc3ccc(OCCNCC(F)(F)F)cc3c2F)S(=O)(=O)N1 [Compound 390, 5-(1-fluoro-3-hydroxy-7-{2-[(2,2,2-trifluoroethyl)amino]ethoxy}naphthalen-2-yl)-1λ^6,2,5-thiadiazolidine-1,1,3-trione] | 1 to 10 nM |
| O=C1CN(c2c(O)cc3ccc(OCCC4COC4)cc3c2F)S(=O)(=O)N1 [Compound 373, 5-{1-fluoro-3-hydroxy-7-[2-(oxetan-3-yl)ethoxy]naphthalen-2-yl}-1λ^6,2,5-thiadiazolidine-1,1,3-trione] | 1 to 10 nM |
| COCCN(C)CCOc1ccc2cc(O)c(N3CC(=O)NS3(=O)=O)c(F)c2c1 [Compound 382, 5-(1-fluoro-3-hydroxy-7-{2-[(2-methoxyethyl)(methyl)amino]ethoxy}naphthalen-2-yl)-1λ^6,2,5-thiadiazolidine-1,1,3-trione] | 10 to 100 nM |
| O=C1CN(c2c(O)cc3ccc(OCCN4Cc5ccccc5C4)cc3c2F)S(=O)(=O)N1 [Compound 384, 5-{7-[2-(1,3-dihydro-2H-isoindol-2-yl)ethoxy]-1-fluoro-3-hydroxynaphthalen-2-yl}-1λ^6,2,5-thiadiazolidine-1,1,3-trione] | 1 to 10 nM |
| CCN(C)CCOc1ccc2cc(O)c(N3CC(=O)NS3(=O)=O)c(F)c2c1 [Compound 388, 5-(7-{2-[ethyl(methyl)amino]ethoxy}-1-fluoro-3-hydroxynaphthalen-2-yl)-1λ^6,2,5-thiadiazolidine-1,1,3-trione] | 1 to 10 nM |
| O=C1CN(c2c(O)cc3ccc(OCCN4CC(F)(F)C4)cc3c2F)S(=O)(=O)N1 [Compound 385, 5-{7-[2-(3,3-difluoroazetidin-1-yl)ethoxy]-1-fluoro-3-hydroxynaphthalen-2-yl}-1λ^6,2,5-thiadiazolidine-1,1,3-trione] | 1 to 10 nM |
| O=C1CN(c2c(O)cc3ccc(OCCC4(CO)CCC4)cc3c2F)S(=O)(=O)N1 [Compound 374, 5-(1-fluoro-3-hydroxy-7-{2-[1-(hydroxymethyl)cyclobutyl]ethoxy}naphthalen-2-yl)-1λ^6,2,5-thiadiazolidine-1,1,3-trione] | < 1 nM |

What follows are compounds tested against T2, His tagged full-length PTP1B protein (Homo sapiens, UniProt P18031) (assay: Mobility Shift Assay (MSA) used to determine potency of PTP1B inhibitors). Conditions: Table 2.
T2 construct: made in house
T2 sequence (P18031 with tags, fused parts or gaps): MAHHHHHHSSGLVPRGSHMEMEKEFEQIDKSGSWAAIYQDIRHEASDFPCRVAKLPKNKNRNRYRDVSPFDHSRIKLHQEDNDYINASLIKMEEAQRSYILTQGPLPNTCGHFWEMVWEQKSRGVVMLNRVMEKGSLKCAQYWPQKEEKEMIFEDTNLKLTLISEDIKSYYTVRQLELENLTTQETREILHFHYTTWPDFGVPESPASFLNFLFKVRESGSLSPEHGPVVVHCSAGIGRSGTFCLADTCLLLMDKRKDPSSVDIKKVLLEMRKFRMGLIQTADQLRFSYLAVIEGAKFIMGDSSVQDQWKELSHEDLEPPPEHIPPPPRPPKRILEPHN
Type: biochemical
Experimental: The enzymatic assay used to determine activity is a mobility shift assay using a LabChip EZ Reader by Caliper Life Sciences. The enzymatic reaction was carried out in assay buffer (50 mM HEPES pH 7.5, 1 mM EGTA, 10 mM EDTA, 0.01% Tween® 20, and 2 mM DTT). […] The enzyme (at 0.5 nM) was incubated with compound for 10 minutes at room temperature. […] The % inhibition was then used to calculate the IC50 values.

| Structure (SMILES) | IC50 |
| --- | --- |
| CS(=O)(=O)N1CCC(Nc2ccc3cc(O)c(N4CC(=O)NS4(=O)=O)c(F)c3c2)CC1 [Compound 305, 5-(1-fluoro-3-hydroxy-7-{[1-(methanesulfonyl)piperidin-4-yl]amino}naphthalen-2-yl)-1λ^6,2,5-thiadiazolidine-1,1,3-trione] | > 100 nM |
| O=C1CN(c2c(O)cc3ccc(O)cc3c2F)S(=O)(=O)N1 [Compound 276, 5-(1-fluoro-3,7-dihydroxynaphthalen-2-yl)-1λ^6,2,5-thiadiazolidine-1,1,3-trione] | > 100 nM |
| O=C1CN(c2c(O)cc3ccc(OCCF)cc3c2F)S(=O)(=O)N1 [Compound 198, 5-[1-fluoro-7-(2-fluoroethoxy)-3-hydroxynaphthalen-2-yl]-1λ^6,2,5-thiadiazolidine-1,1,3-trione] | 10 to 100 nM |
| CC(C)CCCc1ccc2cc(O)c(N3CC(=O)NS3(=O)=O)c(F)c2c1 [Compound 219, 5-[1-fluoro-3-hydroxy-7-(4-methylpentyl)naphthalen-2-yl]-1λ^6,2,5-thiadiazolidine-1,1,3-trione] | 10 to 100 nM |
